Key:
[1] = Oral pharmacokinetics (plasma, brain, CSF); type: in vivo; conditions: Sprague Dawley rats, per os, 10 mg/kg
Method: In another experiment, Sprague Dawley rats were dosed per os using a normal saline formulation containing 10 mg/kg of the compounds identified in the table below. Plasma, brain, and CSF samples were analyzed at various time points over a 24 hour period. The table below summarizes the results of the oral pharmacokinetics.

[2] = Microsomal stability (Human); type: in vitro ADME; conditions: human microsomes
Method: (§1) Microsomal stability of disclosed compounds was investigated. The following table indicates the percent of compound remaining after 60 minutes.

[3] = Microsomal stability (Rat); type: in vitro ADME; conditions: rat microsomes
Method: as §1

[4] = target: T1, NMDAR2D expressing HEK cell membranes (Homo sapiens, UniProt O15399+Q05586); assay: NMDAR agonist assay, [3H]MK-801 binding, NMDAR2D; type: biochemical
T1 construct: expressed in transfected cells; host or cells: HEK cells (membrane extract)
Method: (§2) (nonequilibrium conditions).
(§3) The baseline value was determined from the best fit curve of the DPM values modeled using the GraphPad program and the log(agonist) vs. response(three parameters) algorithm was then subtracted from all points in the dataset.

[5] = tested on: positive (hedonic) 50-kHz ultrasonic vocalizations (USVs); assay: Positive Emotional Learning (PEL) test; type: in vivo; conditions: rat, PO, dose 0.001-1 mg/kg, one hour after administration
Outline: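 Rats received test compound or vehicle (0.5% carboxymethyl cellulose in saline) 1 h before 3 min of experimenter-delivered rough-and-tumble play in alternating 15 s play and no-stimulation blocks. Frequency-modulated 50-kHz USVs during no-stimulation (CS) periods were counted; animals not habituated beforehand.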

[6] = Plasma stability (Human); type: in vitro ADME
Method: (§4) Plasma stability of disclosed compounds was investigated. The following table indicates the percent of compound remaining after 60 minutes.

[7] = Plasma stability (Rat); type: in vitro ADME
Method: as §4

[8] = target: T2, NMDAR2C expressing HEK cell membranes (Homo sapiens, UniProt Q05586+Q14957); assay: NMDAR agonist assay, [3H]MK-801 binding, NMDAR2C; type: biochemical
T2 construct: expressed in transfected cells; host or cells: HEK cells (membrane extract)
Method: as §2, §3

[9] = tested on: Sciatic nerve chronic constriction nerve injury; assay: Bennett nerve injury assay (mechanical analgesia, paw withdrawal threshold); type: in vivo, Sprague Dawley rats
Method: The Bennett model of mechanical analgesia is used to assess the analgesic effects of compounds as measured by paw withdrawal threshold. Bennett G J, Xie Y K, “A peripheral mononeuropathy in rat that produces disorders of pain sensation like those seen in man,” Pain 33:87-107, 1988. […] Vehicle animals receive the surgery and then receive vehicle rather than test compound. Animals were tested 1 hr, 24 h and 1 wk post-test compound or vehicle administration.
Male 2-3 month old Sprague Dawley rats were used. Harlan was the supplier for all studies. Rats were housed in Lucite cages with aspen wood chip bedding, maintained on a 12:12 light:dark cycle (lights on at 5 AM), and given ad libitum access to Purina lab chow (USA) and tap water throughout the study.
Rats were anesthetized using inhaled isoflurane (2.5%). Sciatic nerve chronic constriction nerve injury surgery was performed as previously described (Bennett and Xie, 1988). An incision (˜1.5 cm in length) was made with a scalpel blade dorsally through skin on the right hind limb, parallel and posterior to femur. Using a small pointed hemostat, the biceps femoris and gluteus superficialis muscles were separated. Using curved blunt forceps, the common sciatic nerve was isolated and exposed. For the mechanical analgesia studies, the whole sciatic nerve was ligated. Using hemostats/forceps and chromic gut (5-0), the nerve was loosely ligated with a square knot; 3 ligatures, 1 mm apart were placed on the nerve. […] Testing occurred approximately 2 weeks post-surgery.
During testing, rats were acclimated to the surface of a suspended wire mesh grid (1 cm×1 cm, with the wire being 0.3 cm in diameter) for 15-20 min Starting from the smallest, each Von Frey filament was pressed perpendicularly to the plantar surface of the affected (ipsilateral) hind paw until slightly bent and then held for 6 second. If an obvious hind paw withdrawal or a flinching behavior immediately after the withdrawal of the filament was not observed, the next larger filament was used in the same manner. In case of a response, a lower filament was used. This was repeated until six responses were collected.
For all studies, animals were baselined prior to study start to test for allodynia (defined as a paw withdrawal threshold under 5). A subset of animals was tested with gabapentin (150 mg/kg, PO) to ensure at least 50% analgesia. Once it was confirmed animals were ready for study initiation, animals were balanced across groups. All study investigators were blind to treatment conditions. Animals were dosed with 0.1, 1 or 10 mg/kg of test compound via oral gavage (PO), control sets of animals were dosed with gabapentin (150 mg/kg, PO) or vehicle (0.5% Na-CMC in 0.9% sterile saline, PO). Testing occurred 1 h post-dosing with animals retested 24 hrs and 1 week post-dosing. The percent analgesia calculations for each animal were made using the following equation: % analgesia=[(log(x)−y)/((log (z)−y)]*100, where x=the paw withdrawal threshold for the drug-treated animal in grams, y=the average of the log(x) values for the vehicle treated group, and z=the paw withdrawal threshold for naïve animals in grams (historical value of 15 used). The results for Compound AD, where the percentage of analgesia is measured at 1 hour, 24 hours, and 1 week after compound administration are as follows: for 0.1 mg/kg dose: 37.8% at 1 h, 29.7% at 24 h, and 63.1% at 1 wk; for 1 mg/kg dose: 48.8% at 1 h, 20.6% at 24 h, and 19.8% at 1 wk; and for 10 mg/kg dose: 70.3% at 1 h, 38.8% at 24 h, and 11.3% at 1 wk.

T2 sequence (Q14957 20-1233, other chains not shown): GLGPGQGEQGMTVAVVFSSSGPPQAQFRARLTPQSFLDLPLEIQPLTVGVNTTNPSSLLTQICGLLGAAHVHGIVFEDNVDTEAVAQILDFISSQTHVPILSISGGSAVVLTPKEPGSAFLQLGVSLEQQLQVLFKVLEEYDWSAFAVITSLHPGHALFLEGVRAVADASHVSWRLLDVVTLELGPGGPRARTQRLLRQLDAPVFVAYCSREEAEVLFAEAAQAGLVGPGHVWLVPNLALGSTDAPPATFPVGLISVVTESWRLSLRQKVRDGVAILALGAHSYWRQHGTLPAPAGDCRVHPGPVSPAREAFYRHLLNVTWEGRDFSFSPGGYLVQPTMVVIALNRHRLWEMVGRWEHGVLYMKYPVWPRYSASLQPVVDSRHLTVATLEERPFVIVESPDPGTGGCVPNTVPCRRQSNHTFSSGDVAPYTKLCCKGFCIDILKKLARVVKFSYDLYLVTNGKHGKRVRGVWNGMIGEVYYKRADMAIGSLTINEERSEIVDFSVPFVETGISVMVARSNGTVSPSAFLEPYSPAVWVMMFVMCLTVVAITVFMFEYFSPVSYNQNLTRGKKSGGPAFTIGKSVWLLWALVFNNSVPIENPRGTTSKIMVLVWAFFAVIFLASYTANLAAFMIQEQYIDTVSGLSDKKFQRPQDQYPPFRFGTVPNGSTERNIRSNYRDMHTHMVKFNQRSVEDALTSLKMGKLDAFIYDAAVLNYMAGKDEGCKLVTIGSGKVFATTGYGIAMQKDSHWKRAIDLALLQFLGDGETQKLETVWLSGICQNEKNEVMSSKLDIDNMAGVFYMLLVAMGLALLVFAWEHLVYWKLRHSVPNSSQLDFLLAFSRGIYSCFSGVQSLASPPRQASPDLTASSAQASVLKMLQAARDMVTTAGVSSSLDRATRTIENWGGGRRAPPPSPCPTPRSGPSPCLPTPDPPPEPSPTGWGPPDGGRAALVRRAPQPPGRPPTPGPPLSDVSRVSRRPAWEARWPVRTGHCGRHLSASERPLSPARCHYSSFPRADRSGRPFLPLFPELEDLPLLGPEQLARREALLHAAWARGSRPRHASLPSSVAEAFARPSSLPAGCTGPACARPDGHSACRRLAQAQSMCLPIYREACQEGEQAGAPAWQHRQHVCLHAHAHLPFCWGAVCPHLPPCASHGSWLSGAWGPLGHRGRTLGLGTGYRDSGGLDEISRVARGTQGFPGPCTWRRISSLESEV
T1 sequence (O15399 28-1336, other chains not shown): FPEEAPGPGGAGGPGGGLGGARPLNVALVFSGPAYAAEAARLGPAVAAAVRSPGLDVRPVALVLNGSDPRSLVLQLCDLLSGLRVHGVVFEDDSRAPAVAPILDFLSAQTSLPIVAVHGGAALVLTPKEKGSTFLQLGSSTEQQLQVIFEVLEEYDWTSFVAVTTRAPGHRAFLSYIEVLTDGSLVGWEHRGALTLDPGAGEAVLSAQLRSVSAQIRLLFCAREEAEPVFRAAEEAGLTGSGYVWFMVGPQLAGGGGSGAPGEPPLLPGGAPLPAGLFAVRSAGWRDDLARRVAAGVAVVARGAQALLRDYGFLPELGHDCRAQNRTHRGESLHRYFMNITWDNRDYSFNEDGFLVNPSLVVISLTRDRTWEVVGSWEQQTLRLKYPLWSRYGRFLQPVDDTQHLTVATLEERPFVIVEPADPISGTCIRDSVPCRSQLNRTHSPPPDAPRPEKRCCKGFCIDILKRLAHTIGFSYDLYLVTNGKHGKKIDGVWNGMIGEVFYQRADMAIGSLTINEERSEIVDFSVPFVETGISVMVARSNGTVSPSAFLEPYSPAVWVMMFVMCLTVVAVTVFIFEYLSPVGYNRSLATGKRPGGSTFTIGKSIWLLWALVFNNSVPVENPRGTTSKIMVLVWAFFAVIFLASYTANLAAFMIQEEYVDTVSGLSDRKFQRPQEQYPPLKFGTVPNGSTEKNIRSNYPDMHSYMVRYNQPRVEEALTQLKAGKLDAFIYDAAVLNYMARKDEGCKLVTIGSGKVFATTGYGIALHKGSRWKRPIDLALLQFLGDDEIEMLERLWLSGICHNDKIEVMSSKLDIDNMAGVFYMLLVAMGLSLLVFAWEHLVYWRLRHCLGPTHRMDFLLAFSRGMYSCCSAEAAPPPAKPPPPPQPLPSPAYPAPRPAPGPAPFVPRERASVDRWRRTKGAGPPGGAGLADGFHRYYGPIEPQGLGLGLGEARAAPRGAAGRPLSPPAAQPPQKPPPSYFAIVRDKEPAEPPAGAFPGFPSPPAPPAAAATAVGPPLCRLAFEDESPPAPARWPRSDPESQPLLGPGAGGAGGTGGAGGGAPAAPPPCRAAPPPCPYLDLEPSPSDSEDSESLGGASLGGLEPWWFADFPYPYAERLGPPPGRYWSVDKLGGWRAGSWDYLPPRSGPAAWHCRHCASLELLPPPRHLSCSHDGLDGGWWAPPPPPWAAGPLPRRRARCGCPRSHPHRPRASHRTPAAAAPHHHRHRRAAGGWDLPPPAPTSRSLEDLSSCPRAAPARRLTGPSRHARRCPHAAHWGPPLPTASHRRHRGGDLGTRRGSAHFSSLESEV

In the case of `CC(C)CN1[C@@]2(CC[C@@]13CNC3=O)CNC2=O` [Compound AD, 5-isobutyl-2,5,8-triazadispiro[3.1.36.24]undecane-1,7-dione], the “CSF Cmax” value ([1]; CSF) is reported as 1965.2 ng/mL, the “Brain Cmax” value ([1]; brain) is reported as 1143.2 ng/mL and the AUC(0-t) ([1]; rat, plasma, po) is reported as 19300 ng·h/mL. The bioavailability ([1]; rat, plasma, po) was 82%, the Tmax ([1]; rat, plasma, po, normal saline, read-out: Tmax) was 19.8 min and the Cmax ([1]; rat, po, plasma, read-out: Cmax) was 8560 ng/mL. The “Microsomal (Human): percent of compound remaining after 60 minutes” value [2] was 100%, the “Microsomal (Rat): percent of compound remaining after 60 minutes” value [3] was 100% and the EC50 ([4]; NMDAR2D: log EC50, 50 μM glutamate, [3H]MK-801 binding) was > 100 nM. For the same compound, the Emax ([4]; read-out: NMDAR2D: % maximal [3H]MK-801 binding relative to 1 mM glycine) was 0%, the “Max Effect (mean number of 50 kHz USVs per 15 seconds)” value [5] was “** (**: 11-16.9)” and the “Plasma (Human): percent of compound remaining after 60 minutes” value [6] was 83%. For the same compound, the “Plasma (Rat): percent of compound remaining after 60 minutes” value [7] was 88%, the EC50 ([8]; NMDAR2C: log EC50, 50 μM glutamate, [3H]MK-801 binding) was < 1 nM and the Emax ([8]; read-out: NMDAR2C: % maximal [3H]MK-801 binding relative to 1 mM glycine) was < 100%. It also gave a percentage of analgesia ([9]; 0.1 mg/kg PO, 1 wk after administration) of 63.1%, a percentage of analgesia ([9]; 0.1 mg/kg PO, 1 h after administration) of 37.8% and a percentage of analgesia ([9]; 0.1 mg/kg PO, 24 h after administration) of 29.7%. The percentage of analgesia ([9]; 1 mg/kg PO, 1 wk after administration) was 19.8%, the percentage of analgesia ([9]; 1 mg/kg PO, 1 h after administration) was 48.8% and the percentage of analgesia ([9]; 1 mg/kg PO, 24 h after administration) was 20.6%. For the same compound, the percentage of analgesia ([9]; 10 mg/kg PO, 1 wk after administration) was 11.3%, the percentage of analgesia ([9]; 10 mg/kg PO, 1 h after administration) was 70.3% and the percentage of analgesia ([9]; 10 mg/kg PO, 24 h after administration) was 38.8%.

Reference: patent US11028095B2, “Spiro-lactam and bis-spiro-lactam NMDA receptor modulators and uses thereof” (Aptinyx Inc., priority 2016, dated 2021)
